Tested on: Notch signalling in CHO-N2 (N27#11) cells expressing full length human Notch2
Assay: CHO-N2 (N27) luciferase reporter assay, CHO-Delta antagonist assay
Type: cell-based
Conditions: soluble protein, N27#11 reporter cells co-cultured with CHO-Delta cells overnight
Text: An adenovirus major late promoter TATA-box motif with BglII and HindIII cohesive ends was generated as follows:
This was cloned into plasmid pGL3-Basic (Promega) between the BgiII and HindIII sites to generate plasmid pGL3-AdTATA.
A TP1 promoter sequence (TP1; equivalent to 2 CBF1 repeats) with BamH1 and BglII cohesive ends was generated as follows:
This sequence was pentamerised by repeated insertion into a BglII site and the resulting TP1 pentamer (equivalent to 10 CBF1 repeats) was inserted into pGL3-AdTATA at the BglII site to generate plasmid pLOR91.
A cDNA clone spanning the complete coding sequence of the human Notch2 gene (see, eg GenBank Accession No AF315356) was constructed as follows. A 3′ cDNA fragment encoding the entire intracellular domain and a portion of the extracellular domain was isolated from a human placental cDNA library (OriGene Technologies Ltd., USA) using a PCR-based screening strategy. […]
CHO-Delta cells (as described above) were maintained in DMEM plus 10% (HI)FCS plus glutamine plus P/S plus 0.5 mg/ml G418. Just prior to use the cells were removed from a T80 flask using 0.02% EDTA solution (Sigma), spun down and resuspended in 10 ml DMEM plus 10%(HI)FCS plus glutamine plus P/S. 10 μl of cells were counted and the cell density was adjusted to 5.0×10^5 cells/ml with fresh DMEM plus 10%(HI)FCS plus glutamine plus P/S. […]

Substance	inhibition of Notch signalling from CHO-Delta cells
hDelta1-IgG4Fc: fusion protein comprising the extracellular domain of human Delta1 fused to the Fc domain of human IgG4 (SEQ ID NO: 5)	inhibition of Notch signalling
hJagged1EGF1&2-IgG4Fc: human jagged1 sequence up to the end of EGF2 (leader, amino terminal, DSL, EGF1+2) fused to the Fc domain of human IgG4 (SEQ ID NO: 10)	substantially the same inhibition of Notch signalling

From US20050137130A1, “Medical treatment” (priority 2001, published 2005)
